Data taken from article PMC4503722, “Novel Phenotypic Outcomes Identified for a Public Collection of Approved Drugs from a Publicly Accessible Panel of Assays” (PLoS ONE, 2015).
Like-named read-outs stand apart in the source and are kept apart here.

Legend:
[1] = system: endothelial tube formation in co-cultures of ECFCs and ADSCs treated with VEGF; assay: cells; format: cell-based, human; conditions: for IC50: read-out: VEGF_ADSC\ECFC Angio CD31 TubeArea summarized IC50
[2] = system: ECFC/ADSC co-culture cell nuclei number; conditions: for IC50: read-out: VEGF_ADSC\ECFC Angio Hoechst NucArea summarized IC50
[3] = system: HeLa cells; assay: cells; format: cell-based;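 on Hela CellCycMod PI 4N summarized IC50: value tracks stimulation of 4N DNA content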

Row | SMILES | VEGF_ADSC\ECFC Angio CD31 TubeArea IC50/EC50 [1] | VEGF_ADSC\ECFC Angio Hoechst NucArea IC50/EC50 [2] | IC50 [1] | IC50 [2] | further results
1 | C#C[C@]1(OC(C)=O)CC[C@H]2[C@@H]3CCC4=CC(=NO)CC[C@@H]4[C@H]3CC[C@@]21CC (mixture of isomers) [NCGC00344561-01] | > 10 µM | > 10 µM | – | – | –
2 | CC(C)c1c(C(=O)Nc2ccccc2)c(-c2ccccc2)c(-c2ccc(F)cc2)n1CC[C@@H](O)C[C@@H](O)CC(=O)O [Atorvastatin, reference compound] | – | – | – | – | inhibition of endothelial tube / cord formation (in words) [1]: did not inhibit endothelial tube formation
3 | CN(C)CCCN1c2ccccc2Sc2ccc(Cl)cc21 [NCGC00015273-19] | – | – | > 10 µM | > 10 µM | –
4 | O=C1NCN(c2ccccc2)C12CCN(CCCC(c1ccc(F)cc1)c1ccc(F)cc1)CC2 [NCGC00015424-11] | – | – | – | – | IC50/EC50, VEGF_ADSC\ECFC Angio CD31 TubeArea (assay number 2) [1]: > 10 µM; IC50/EC50, VEGF_ADSC\ECFC Angio Hoechst NucArea (assay number 3) [2]: 8.086 µM
5 | OCCN1CCN(CCCN2c3ccccc3Sc3ccc(C(F)(F)F)cc32)CC1 [NCGC00015436-11] | > 10 µM | > 10 µM | – | – | –
6 | O=c1c(-c2ccc(O)cc2)coc2cc(O)cc(O)c12 [NCGC00015479-19] | – | – | – | – | IC50/EC50, VEGF_ADSC\ECFC Angio CD31 TubeArea (assay number 2) [1]: > 10 µM; IC50/EC50, VEGF_ADSC\ECFC Angio Hoechst NucArea (assay number 3) [2]: > 10 µM
7 | Oc1ccc(O)cc1 [NCGC00015523-13] | – | – | > 10 µM | > 10 µM | –
8 | CN(C)C(=O)Oc1cccc([N+](C)(C)C)c1.[Br-] [NCGC00015730-11] | > 10 µM | > 10 µM | – | – | –
9 | OCCN1CCN(CCCN2c3ccccc3Sc3ccc(Cl)cc32)CC1 [NCGC00015826-13] | – | – | > 10 µM | > 10 µM | –
10 | Cn1ccc2cc3c(cc21)CCN3C(=O)Nc1cccnc1 [NCGC00015917-06] | – | – | – | – | IC50/EC50, VEGF_ADSC\ECFC Angio CD31 TubeArea (assay number 2) [1]: > 10 µM; IC50/EC50, VEGF_ADSC\ECFC Angio Hoechst NucArea (assay number 3) [2]: > 10 µM
11 | CC(C)(C)CC(C)(C)c1ccc(OCCOCC[N+](C)(C)Cc2ccccc2)cc1 [NCGC00016373-08] | – | – | 3.74 µM | – | –
12 | Cc1cccc(C)c1NC(=O)CN1CCN(CCCC(c2ccc(F)cc2)c2ccc(F)cc2)CC1 [NCGC00016627-04] | – | – | – | – | IC50/EC50, VEGF_ADSC\ECFC Angio CD31 TubeArea (assay number 2) [1]: > 10 µM; IC50/EC50, VEGF_ADSC\ECFC Angio Hoechst NucArea (assay number 3) [2]: 9.37 µM
13 | CN1CCC[C@@H]1CCO[C@](C)(c1ccccc1)c1ccc(Cl)cc1.O=C(O)/C=C/C(=O)O [NCGC00016710-05] | > 10 µM | > 10 µM | – | – | –
14 | COc1ccc(CCN2CCC(Nc3nc4ccccc4n3Cc3ccc(F)cc3)CC2)cc1 [NCGC00016913-14] | > 10 µM | > 10 µM | – | – | –
15 | O=c1oc2c(O)c(O)cc3c(=O)oc4c(O)c(O)cc1c4c23 [NCGC00017245-10] | > 10 µM | > 10 µM | – | – | –
16 | Oc1ccc(/C=C/c2cc(O)cc(O)c2)cc1 [NCGC00017352-24] | – | – | – | – | IC50/EC50, VEGF_ADSC\ECFC Angio CD31 TubeArea (assay number 2) [1]: > 10 µM; IC50/EC50, VEGF_ADSC\ECFC Angio Hoechst NucArea (assay number 3) [2]: > 10 µM
17 | CCOC(=O)C1=C[C@]2(CC)CCCN3CCc4c(n1c1ccccc41)[C@@H]32 [NCGC00018204-13] | – | – | – | – | IC50/EC50, VEGF_ADSC\ECFC Angio CD31 TubeArea (assay number 2) [1]: > 10 µM; IC50/EC50, VEGF_ADSC\ECFC Angio Hoechst NucArea (assay number 3) [2]: > 10 µM
18 | CC(=O)Oc1cccc2c1C(=O)c1c(OC(C)=O)cc(C(=O)O)cc1C2=O [NCGC00018274-05] | – | – | – | – | IC50/EC50, VEGF_ADSC\ECFC Angio CD31 TubeArea (assay number 2) [1]: > 10 µM; IC50/EC50, VEGF_ADSC\ECFC Angio Hoechst NucArea (assay number 3) [2]: > 10 µM
19 | O=C(c1ccc(F)cc1)C1CCN(CCn2c(=O)[nH]c3ccccc3c2=O)CC1 [NCGC00021146-09] | > 10 µM | > 10 µM | – | – | –
20 | CCCCC(=O)O[C@H]1CC[C@H]2[C@@H]3CCc4cc(O)ccc4[C@@H]3CC[C@]12C [NCGC00022275-03] | – | – | – | – | IC50/EC50, VEGF_ADSC\ECFC Angio CD31 TubeArea (assay number 2) [1]: > 10 µM; IC50/EC50, VEGF_ADSC\ECFC Angio Hoechst NucArea (assay number 3) [2]: 8.298 µM
21 | CC[C@@H]1C(=O)OC[C@@H]1Cc1cncn1C [NCGC00023339-16] | > 10 µM | > 10 µM | – | – | –
22 | CCN1CCC[C@H]1CNC(=O)c1c(OC)ccc(Br)c1OC [NCGC00024870-06] | > 10 µM | > 10 µM | – | – | –
23 | CC[N+](CC)(CC)CCOc1ccc(/C=C/c2ccccc2)cc1 [NCGC00025122-02] | – | – | > 10 µM | > 10 µM | –

Row | SMILES | VEGF_ADSC\ECFC Angio CD31 TubeArea IC50/EC50 [1] | VEGF_ADSC\ECFC Angio Hoechst NucArea IC50/EC50 [2] | IC50 [1] | IC50 [2] | further results
24 | Oc1ccc2[nH]cc(CCCCN3CC=C(c4ccccc4)CC3)c2c1 [NCGC00025216-03] | 4.0367 µM | > 10 µM | – | – | –
25 | CS(=O)(=O)O.Cc1c(O)cccc1C(=O)N[C@@H](CSc1ccccc1)[C@H](O)CN1C[C@H]2CCCC[C@H]2C[C@H]1C(=O)NC(C)(C)C [NCGC00090782-06] | > 10 µM | > 10 µM | – | – | –
26 | Nc1ccc(O)cc1 [NCGC00090816-05] | – | – | – | – | IC50/EC50, VEGF_ADSC\ECFC Angio CD31 TubeArea (assay number 2) [1]: > 10 µM; IC50/EC50, VEGF_ADSC\ECFC Angio Hoechst NucArea (assay number 3) [2]: > 10 µM
27 | CCCCCCCCCCCC[N+](C)(C)CCOc1ccccc1 [NCGC00091010-03] | – | – | 3.38 µM | 7.29 µM | –
28 | C#C[C@]1(O)CC[C@H]2[C@@H]3CCc4cc(O)ccc4[C@H]3CC[C@@]21C [NCGC00091533-10] | – | – | > 10 µM | > 10 µM | –
29 | CN(C)C(=S)SSC(=S)N(C)C [NCGC00091563-12] | – | – | – | > 10 µM | –
30 | CCCCC(CC)COC(=O)C(C#N)=C(c1ccccc1)c1ccccc1 (stereo not drawn) [NCGC00091585-05] | > 10 µM | 3.289 µM | – | – | –
31 | CC12CCC(CC1)C(C)(C)O2 [NCGC00091666-04] | – | – | > 10 µM | > 10 µM | –
32 | O=C(O)c1ccc2[nH]cc(CCCCN3CC=C(c4ccccc4)CC3)c2c1 [NCGC00092328-02] | > 10 µM | > 10 µM | – | – | –
33 | NC(=O)c1cccnc1 [NCGC00093354-05] | – | – | > 10 µM | > 10 µM | –
34 | CCOc1ccc2nc3cc(N)ccc3c(N)c2c1 [NCGC00096056-02] | – | – | – | > 10 µM | IC50 ([3]; assay number 14, 2N, read-out: Hela CellCycMod PI 2N summarized IC50): > 10 µM; IC50 ([3]; assay number 15, S phase, read-out: Hela CellCycMod PI S Phase summarized IC50): > 10 µM; IC50 ([3]; assay number 16, 4N, read-out: Hela CellCycMod PI 4N summarized IC50): > 10 µM; IC50 ([3]; assay number 17, MI, read-out: Hela CellCycMod PI MI summarized IC50): > 10 µM; IC50 ([3]; assay number 18, cell number, read-out: Hela CellCycMod PI Cell Number summarized IC50): 2.11 µM
35 | C[C@H]1O[C@@H](O[C@H]2[C@@H](O)C[C@H](O[C@H]3[C@@H](O)C[C@H](O[C@H]4CC[C@@]5(C)[C@H](CC[C@@H]6[C@@H]5CC[C@]5(C)[C@@H](C7=CC(=O)OC7)CC[C@]65O)C4)O[C@@H]3C)O[C@@H]2C)C[C@H](O)[C@@H]1O [NCGC00142623-04] | – | – | 0.011 µM | 0.103 µM | –
36 | Oc1cc(Cl)ccc1Oc1ccc(Cl)cc1Cl [NCGC00159417-05] | – | – | > 10 µM | 8.1 µM | –
37 | CC(=O)Oc1ccc(C2(c3ccc(OC(C)=O)cc3)C(=O)Nc3ccccc32)cc1 [NCGC00159420-04] | – | – | – | – | IC50/EC50, VEGF_ADSC\ECFC Angio CD31 TubeArea (assay number 2) [1]: > 10 µM; IC50/EC50, VEGF_ADSC\ECFC Angio Hoechst NucArea (assay number 3) [2]: > 10 µM
38 | C[C@H]1O[C@@H](O[C@H]2CC[C@@]3(C)[C@H](CC[C@@H]4[C@@H]3C[C@@H](O)[C@]3(C)[C@@H](C5=CC(=O)OC5)CC[C@]43O)C2)C[C@H](O)[C@@H]1O[C@H]1C[C@H](O)[C@H](O[C@H]2C[C@H](O)[C@H](O[C@@H]3O[C@H](CO)[C@@H](O)[C@H](O)[C@H]3O)[C@@H](C)O2)[C@@H](C)O1 [NCGC00159441-03] | 0.0614 µM | 0.2987 µM | – | – | –
39 | COC1=C(OC)C(=O)C(CCCCCCCCCCO)=C(C)C1=O [NCGC00160514-02] | > 10 µM | > 10 µM | – | – | –
40 | O=C(N/N=C/c1ccccc1O)c1ccncc1 [NCGC00160648-02] | – | – | > 10 µM | > 10 µM | –
41 | COc1ccc(/C=N/NC(=O)c2ccncc2)cc1OC [NCGC00160656-02] | – | – | > 10 µM | > 10 µM | –
42 | O=C(CCN1CCC(c2ccccc2)C1)c1ccc2c(c1)OCCO2 (stereo not drawn) [NCGC00160665-02] | > 10 µM | > 10 µM | – | – | –
43 | CCCCCCCCOc1ccccc1C(=O)Nc1ccc(C(=O)OCC[N+](C)(CC)CC)cc1.[Br-] [NCGC00163507-03] | > 10 µM | 8.466 µM | – | – | –
44 | O=[N+]([O-])C(Br)(CO)CO [NCGC00164057-03] | – | – | > 10 µM | > 10 µM | –
45 | CC[C@H](C)C(=O)O[C@H]1C[C@H](O)C=C2C=C[C@H](C)[C@H](CC[C@@H](O)C[C@@H](O)CC(=O)O)[C@H]21 [pravastatin, reference compound] | – | – | – | – | inhibition of endothelial tube / cord formation (in words) ([1]; ECFC/ADSC co-culture): did not inhibit endothelial tube formation
